The values that follow come from patent US8377983B2, “Benzazole derivatives, compositions, and methods of use as aurora kinase inhibitors” (TransTech Pharma, Inc., priority 2006, dated 2013).

Experiment [1] has as its system HCT-116, BxPC-3, A549, BT-549, LNCaP, MIA Paca-2 tumor cells. In words: In vitro cell proliferation (alamarBlue). It counts as cell-based. Particulars: Homo sapiens; 96 hr incubation; read-out: IC50 against at least one of HCT-116, MIA Paca-2, or LNCaP cells. As to the method: Compounds are tested for their ability to inhibit cell proliferation and viability. The metabolic reduction of alamarBlue™ (Biosource cat. no. DAL1100) was used to measure cell viability.
The anti-proliferative activity of compounds is studied using a panel of tumor cells: HCT-116 (human colorectal carcinoma cell line), BxPC-3 (human pancreatic adenocarcinoma cell line), A549 (human lung carcinoma cell line), BT-549 (human breast carcinoma cell line), LNCaP (human prostate carcinoma cell line), and MIA Paca-2 (human pancreatic carcinoma cell line). These adherent cells (1,000-20,000) are plated in complete media (RPMI-1640, DMEM, F12K, or McCoy's 5A) containing 10% fetal bovine serum (Gibco) in tissue culture treated 96-well plates (Costar) and placed in a humidified incubator at 37° C., […], 5% CO2 for 18-24 hr. Media was removed and replaced with 90 μL fresh media. Compound is diluted in media containing 3% DMSO and added to cells. Background (C^−) relative fluorescent units are determined by incubating alamarBlue™ reagent for 6 hr using untreated cells plated 18 hr earlier. Untreated cells or cells containing compound are incubated for 96 hr. During the last 6 hr of the incubation period, alamarBlue™ reagent (10 μL) was added to each well and incubated in a humidified incubator at 37° C., […], 5% CO2.
AlamarBlue™ reduction is measured in a fluorescence plate reader with instrument settings for excitation at 530 nm and emission at 590 nm. […] Compound IC50 values are determined from % inhibition versus compound concentration curve plots using GraphPad Prism™ according to the 4 parameter logistic equation Y=Bottom+(Top−Bottom)/1+10^((Log EC50−X)*HillSlope)).
(In general: The colour change of resazurin is a common sign of viable cells or microbes.)

The test system of a further experiment is BT-474 breast xenograft. Put plainly: BT-474 xenograft model, Example 88 alone and in combination with trastuzumab. It counts as in vivo, athymic SCID mice. The conditions noted are these: for Median Tumor Size: Example 88 30 mg/kg i.p. b.i.d. 3 days on, 2 days off, 5 cycles, trastuzumab 10 mg/kg i.p. twice weekly 4 weeks. From the text:
Mice-bearing sc tumors were randomized, and treatment groups consisted of 10 mice.

Experiment [2] has as its system human MiaPaCa-2 pancreatic xenografts. In words: MiaPaCa-2 xenograft model, Example 88 alone and in combination with erlotinib. The conditions noted are these: for Median Tumor Size: Example 88 10 mg/kg i.p. b.i.d. 10 days, erlotinib 50 mg/kg p.o. daily 14 days. It is filed as in vivo, athymic mice. As to the method:
(§1) Compounds were dosed on the following schedules:
2) Erlotinib was dosed 50 mg/kg, p.o., daily for 14 days (days 1-14).
Mice-bearing sc tumors were randomized, and treatment groups consisted of 8 mice.

The subject of experiment [3] is human tumor xenografts derived from pancreas and breast tissues. Put plainly: Single agent antitumor activity in established human tumor xenografts. The conditions noted are these: established human tumor xenografts in athymic mice. It counts as in vivo. From the text:
While the compounds of the present invention may be used as a single agent, they may also be used as part of a combination therapy.
For orientation: Xenograft models place foreign cells or tissue in a host animal.

For experiment [4], the system named is human MiaPaCa-2 pancreatic xenografts. In words: MiaPaCa-2 xenograft model, Example 88 alone and in combination with gemcitabine. It is filed as in vivo, athymic mice. Particulars: for Median Tumor Size: Example 88 10 mg/kg i.p. b.i.d. 10 days, gemcitabine 120 mg/kg i.p. q3d×4. Here is the method:
as §1
2) Gemcitabine was dosed 120 mg/kg, i.p., q3d×4 (days 1, 4, 7, 10).
Drug treatment started when mean tumor sizes reached approximately 120 mg (day 8). Mice-bearing sc tumors were randomized, and treatment groups consisted of 8 mice. The median tumor size for each group at various points in the study are listed below in Table B.

The mark [5] stands for this setting: day 24, out of 10 mice, Table CC head: Example 88 10 mg/kg, Trastuzumab 10 mg/kg.
[6] abbreviates: day 8 of study (treatment start).
The mark [7] stands for this setting: previous dose response studies in this model, 10 mg/kg.
Setting [8] is: day 42, out of 8 mice, Example 88 10 mg/kg, gemcitabine 120 mg/kg.

As usually defined, the IC50 is the concentration that gives 50% inhibition. On to `O=C(Nc1ccc2cn[nH]c2c1)c1cc2nc(Nc3ccccc3C(F)(F)F)[nH]c2cc1N1CCOCC1` [Example 54, 6-Morpholin-4-yl-2-(2-trifluoromethylphenylamino)-1H-benzimidazole-5-carboxylic acid (1H-indazol-6-yl)-amide], for which, in experiment [1], the IC50 was ≤ 3000 nM.
For the compound `Cc1cccnc1Nc1nc2cc(C(=O)Nc3ccc4cn[nH]c4c3)ccc2[nH]1` [Example 36, 2-(3-Methylpyridin-2-ylamino)-3H-benzimidazole-5-carboxylic acid(1H-indazol-6-yl)-amide], the IC50 in experiment [1] was ≤ 3000 nM.
In the case of `Cc1cccnc1Nc1nc2cc(C(=O)Nc3ccc4cn[nH]c4c3)c(N3CCN(C)CC3)cc2[nH]1` [Example 58, 6-(4-Methyl-piperazin-1-yl)-2-(3-methyl-pyridin-2-ylamino)-1H-benzimidazole-5-carboxylic acid (1H-indazol-6-yl)-amide], the IC50 in experiment [1] was ≤ 3000 nM.
As for `O=C(Nc1ccc2cn[nH]c2c1)c1cc2nc(Nc3ccccc3C(F)(F)F)[nH]c2cc1N1CCNCC1` [Example 88, 6-Piperazin-1-yl-2-(2-trifluoromethylphenylamino)-1H-benzimidazole-5-carboxylic acid (1H-indazol-6-yl)-amide], the “Median Tumor Size” value in the experiment with BT-474 breast xenograft (day 4 of study) was found to be 120 mg; in the experiment with BT-474 breast xenograft (day 7 of study) it was 152 mg; with BT-474 breast xenograft (day 10 of study), 153 mg; with BT-474 breast xenograft (day 14 of study) it was 179 mg; in the experiment with BT-474 breast xenograft (day 17 of study) it was 149 mg; in the experiment with BT-474 breast xenograft (day 21 of study) it was 142 mg. The “Median Tumor Size” value amounted to 138 mg with BT-474 breast xenograft (day 24 of study); 104 mg with BT-474 breast xenograft (day 28 of study); 120 mg in experiment [2] (setting [6]); 162 mg in experiment [2] (day 10 of study); 170 mg in experiment [2] (day 13 of study); 170 mg in experiment [2] (day 16 of study). For the same compound, the “Median Tumor Size” value is 221 mg in experiment [2] (day 20 of study); 209 mg in experiment [2] (day 23 of study); 368 mg in experiment [2] (day 27 of study); 486 mg in experiment [2] (day 30 of study); 817 mg in experiment [2] (day 34 of study); 1055 mg in experiment [2] (day 37 of study). In addition, the “Median Tumor Size” value is 1629 mg in experiment [2] (day 42 of study); 120 mg in experiment [4] (setting [6]); 162 mg in experiment [4] (day 10 of study); 170 mg in experiment [4] (day 13 of study); 170 mg in experiment [4] (day 16 of study); 221 mg in experiment [4] (day 20 of study). The “Median Tumor Size” value was 209 mg in experiment [4] (day 23 of study); 368 mg in experiment [4] (day 27 of study); 486 mg in experiment [4] (day 30 of study); 817 mg in experiment [4] (day 34 of study); 1055 mg in experiment [4] (day 37 of study); 1629 mg in experiment [4] (day 42 of study). Further, in the experiment with BT-474 breast xenograft (setting [5]), the “complete responders (CR)” value is 0/10. The “partial responders (PR)” value in the experiment on BT-474 breast xenograft (setting [5]) is recorded as 0/10. Moreover, the “effectiveness of dose for inhibition of tumor growth” value in experiment [2] (setting [7]) and in experiment [4] (setting [7]) was “moderately effective dose” each time. Also, in experiment [3], the “antitumor activity as a single agent” value was “demonstrated antitumor activity”. The “complete responders (CR, 100% reduction in tumor size)” value in experiment [4] (setting [8]) is 0/8. Besides, the “partial responders (PR, greater than 50% reduction in tumor size)” value in experiment [4] (setting [8]) was 0/8.
